# Assay results published in paper PMC9709406 (Frontiers in Pharmacology, 2022).
# Several values for one entry are separate records, joined by “and”; a condition that tells them apart may be missing. Equal values may be shown once. Read-outs that look alike come from different tables or passages of the source.
# How the values were obtained:
# KYSE450 cells [1] = assay: MTT assay, KYSE450; type: cell-based, human; conditions: for IC50: Homo sapiens, KYSE-450
# In short: (§1)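 MTT read-out at 490 nm after 48 h treatment with 0–50 μM compound, applied one day after seeding 2,200–2,500 cells/well; five wells per concentration, 0.1% DMSO as control. Culture in RPMI-1640/10% FBS, with 100 nm/L paclitaxel kept in the taxol-resistant lines.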
# EGFR = molecular target: T1, EGFR (Homo sapiens, UniProt P00533); assay: EGFR kinase assay (ELISA); type: biochemical; conditions: 25°C
# T1 construct: purchased Active MOTIF
# T1 sequence (P00533 25-1210): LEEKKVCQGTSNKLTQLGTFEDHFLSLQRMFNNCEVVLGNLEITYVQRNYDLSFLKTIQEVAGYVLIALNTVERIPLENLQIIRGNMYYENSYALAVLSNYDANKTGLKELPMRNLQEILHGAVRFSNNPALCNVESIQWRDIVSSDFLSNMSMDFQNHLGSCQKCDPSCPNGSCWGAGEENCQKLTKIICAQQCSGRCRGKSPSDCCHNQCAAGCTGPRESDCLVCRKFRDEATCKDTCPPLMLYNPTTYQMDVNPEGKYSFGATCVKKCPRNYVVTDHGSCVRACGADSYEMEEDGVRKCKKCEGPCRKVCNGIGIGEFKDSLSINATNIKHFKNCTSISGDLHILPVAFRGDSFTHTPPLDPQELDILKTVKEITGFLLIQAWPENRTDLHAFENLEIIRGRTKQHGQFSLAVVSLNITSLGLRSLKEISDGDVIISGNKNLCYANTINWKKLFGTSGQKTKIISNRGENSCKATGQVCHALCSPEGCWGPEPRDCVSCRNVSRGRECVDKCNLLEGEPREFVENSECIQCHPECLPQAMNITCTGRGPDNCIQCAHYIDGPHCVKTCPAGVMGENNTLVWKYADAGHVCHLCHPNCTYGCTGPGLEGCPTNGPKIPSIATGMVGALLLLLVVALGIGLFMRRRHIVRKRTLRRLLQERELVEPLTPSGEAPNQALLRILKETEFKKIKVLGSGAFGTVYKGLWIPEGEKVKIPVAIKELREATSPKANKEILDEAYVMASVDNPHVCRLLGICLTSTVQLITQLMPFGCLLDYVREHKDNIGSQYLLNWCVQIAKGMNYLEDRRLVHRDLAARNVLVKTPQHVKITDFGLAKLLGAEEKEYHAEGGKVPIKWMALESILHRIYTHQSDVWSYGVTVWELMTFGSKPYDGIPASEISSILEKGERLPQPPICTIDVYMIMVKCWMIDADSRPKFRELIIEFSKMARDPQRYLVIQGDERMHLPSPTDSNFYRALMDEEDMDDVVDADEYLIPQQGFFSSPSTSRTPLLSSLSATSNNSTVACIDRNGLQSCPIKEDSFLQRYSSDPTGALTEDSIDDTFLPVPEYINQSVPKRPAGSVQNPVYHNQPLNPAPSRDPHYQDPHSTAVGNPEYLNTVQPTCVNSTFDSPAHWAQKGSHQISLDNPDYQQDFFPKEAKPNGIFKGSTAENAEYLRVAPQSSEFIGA
# Experimental: Kinase inhibitory activities of the compounds were evaluated using the Protein Tyrosine Kinase Assay Kit (SignalChem (British Columbia, Canada)). The kinase enzyme of EGFR was purchased from Active MOTIF. The ELISA experiments were carried out according the instructions of the kit. Active kinases were incubated with indicated compounds in 1 × reaction buffer containing 20 μM substrate at 25°C for 1 h and 2 h, respectively. The absorbance was read with a multimode plate reader (PerkinElmer, United States) at 450 nm.
# SHEE cells = assay: MTT assay, normal esophageal epithelial cell line SHEE; type: cell-based; conditions: Homo sapiens, 48 h, n = 5
# In short: as §1
# KYSE450TR cells [2] = assay: Annexin V/PI flow cytometry for apoptosis, KYSE450TR; type: cell-based, human; conditions: 48 h
# Experimental: Cell-apoptosis analysis was carried out by flow cytometry using the Annexin V/PI apoptosis methods. […] Cells were harvested and incubated with 250 μL of 1 × Annexin V binding buffer containing 5 μL PI and 5 μL FITC Annexin V (final concentration 1.8 μg/ml, Biolegend (cat: 640945) for 15 min at room temperature in dark. 200 µL of 1 × binding buffer was added for flow cytometry analysis (BD FACSCalibur™ Flow Cytometer).
# [3] = system: EGFR-TK pathway in KYSE450 cells; assay: Western blot of EGFR-TK pathway proteins, KYSE450; type: cell-based, human; conditions: KYSE450, 3 μM
# Experimental: (§2) Cells treated with 1% DMSO were used as control. Then the cells were harvested and total proteins were extracted. Total proteins were separated by 12% SDS polyacrylamide gel electrophoresis and transferred onto PVDF membranes. The membrane was blocked for 1 h, then incubated overnight with a 1 : 1000 dilution of anti-EGFR, anti-p-EGFR (Tyr1068/Tyr1086), anti-Erk1/2, and anti-p-Erk1/2 (Thr202/Tyr204), or 1 : 3000 dilution of anti-GAPDH primary antibody at 4°C. 1 : 3000 anti-rabbit secondary antibodies incubated for 2 h at room temperature. Protein bands were developed by chemiluminescence.
# KYSE70TR cells = assay: MTT assay, taxol-resistant KYSE70TR; type: cell-based, human; conditions: for blank-corrected absorbance 490 nm relative to control (fraction) / inhibition (1 minus fraction of control): 70TR
# From the text: The human cancer cells (H1650, H1975, KYSE70, KYSE410 and KYSE450) were purchased from the Type Culture Collection of the Chinese Academy of Sciences (Shanghai, China). The human immortalized normal esophageal epithelial cell line SHEE was donated by Dr. Enmin Li from the Laboratory of Tumor Pathology (Shantou University Medical College, Shantou, Guangdong, China). Drug-resistant cells (H1650TR, H1975OR, KYSE70TR, KYSE410TR and KYSE450TR) were induced by China-US (Henan) Hormel Cancer Institute. The cellswere cultured in RPMI-1640 complete growth medium containing 100 U/mL penicillin-streptomycin and 10% FBS. Based on the above medium formula, 100 nm/L paclitaxel was added in taxol-resistant cells, 100 nm/L gefitinib was added in gefitinib-resistant cells. The cells were incubated at 37 °C in an atmosphere containing 5% of CO2. The compounds were dissolved in DMSO to make a 50 mM stock solution and were diluted to the concentration of working solutions with complete growth medium before administration.
# Cells were seeded in 96-well plates with 2,200–2,500 cells/well in100 μL. One day after seeding, test compounds with the concentration between 0 and 50 μM were added with 0.1% DMSO as control. Five multiple wells for each concentration. […] The absorbance at 490 nm was measured using a microplate reader (Thermo).
# KYSE450TR cells [4] = assay: Cell cycle analysis by flow cytometry, KYSE450TR; type: cell-based, human; conditions: 24 h, icotinib at 8 μM, 3l at 8 μM
# Experimental: (§3) KYSE450/KYSE450TR cells were plated in 6-well plates with a density of 1×10^5 cells/well and cultured overnight. […] Trypsinization treatment and the cells were collected by centrifugation. The cell pellet was re-suspended in 70% ethanol at −20°C for at least 3 h. The cells were washed with PBS and were re-suspended in 250 μL of 0.6% tricine with Renease A for 1 h, then stained in PI (final concentration 1.8 μg/ml, Biolegend cat: 640945) for 15 min in dark. Cells were retransferred to the BD FACSCalibur™ Flow Cytometer. All analyses were performed with FlowJo software v105.3.6.
# [5] = molecular target: T2, EGFR wild protein (H672-A1210) (Homo sapiens, UniProt P00533); assay: EGFR protein affinity determined with SPR; type: binding; conditions: immobilized wild-type EGFR
# T2 construct: purchased Active MOTIF 31165
# T2 sequence (P00533 672-1210): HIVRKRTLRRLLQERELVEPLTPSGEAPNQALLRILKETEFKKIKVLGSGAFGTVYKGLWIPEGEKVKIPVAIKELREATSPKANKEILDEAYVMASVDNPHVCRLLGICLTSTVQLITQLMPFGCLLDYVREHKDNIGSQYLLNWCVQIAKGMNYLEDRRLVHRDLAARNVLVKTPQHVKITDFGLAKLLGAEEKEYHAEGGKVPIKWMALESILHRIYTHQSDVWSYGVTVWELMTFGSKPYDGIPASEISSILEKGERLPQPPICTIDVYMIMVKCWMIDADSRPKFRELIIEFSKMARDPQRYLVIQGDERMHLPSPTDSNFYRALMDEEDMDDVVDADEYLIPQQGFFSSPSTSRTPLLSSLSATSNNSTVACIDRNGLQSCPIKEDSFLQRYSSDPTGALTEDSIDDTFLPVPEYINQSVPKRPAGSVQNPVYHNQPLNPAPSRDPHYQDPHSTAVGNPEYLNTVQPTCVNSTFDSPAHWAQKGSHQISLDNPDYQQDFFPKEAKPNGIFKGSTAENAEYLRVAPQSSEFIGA
# Experimental: Firstly, EGFR protein (protein concentration : 0.468 μg/μL, Active MOTIF, cat: 31165, lot: 28215004) was covalently immobilized onto a CM5 sensor chip at densities of 2000 response units. […] During the drug-protein interaction, the change of the refractive index was measured in real-time which would allow the plotting of the results of interaction as response units versus time. The interaction results were analyzed under a BIA evaluation 3.0 software.
# KYSE450 cells [6] = assay: Cell cycle analysis by flow cytometry, KYSE450; type: cell-based, human; conditions: KYSE450, 24 h; icotinib at 2 μM, 3l at 8 μM
# Experimental: as §3
# [7] = system: EGFR-TK pathway in KYSE450TR cells; assay: Western blot of EGFR-TK pathway proteins, KYSE450TR; type: cell-based, human; conditions: 3 μM, vs control
# Experimental: as §2
compound,measurement,setting,value
FC(F)(F)c1ccc(-n2cc(-c3cccc(Nc4ncnc5cc6c(cc45)OCCOCCOCCO6)c3)nn2)cc1 [compound 3l],IC50,"KYSE450 cells [1]; KYSE450, MTT, 490 nm, read-out: IC50",4 µM
same,IC50,"KYSE450 cells [1]; MTT, 48 h, KYSE450, n = 5, read-out: IC50 48 h KYSE450",3.4 ± 0.16 µM
same,blank-corrected absorbance 490 nm relative to control (fraction),"KYSE450 cells [1]; KYSE450, concentration 2",0.4268
same,inhibition (1 minus fraction of control),"KYSE450 cells [1]; KYSE450, concentration 2",0.5732
same,blank-corrected absorbance 490 nm relative to control (fraction),"KYSE450 cells [1]; KYSE450, concentration 4",0.4691
same,inhibition (1 minus fraction of control),"KYSE450 cells [1]; KYSE450, concentration 4",0.5309
same,blank-corrected absorbance 490 nm relative to control (fraction),"KYSE450 cells [1]; KYSE450, concentration 8",0.05646
same,inhibition (1 minus fraction of control),"KYSE450 cells [1]; KYSE450, concentration 8",0.9435
same,IC50,"EGFR; incubation 1 h, read-out: IC50 EGFR 1 h",0.42 µM
same,IC50,"EGFR; incubation 2 h, read-out: IC50 EGFR 2 h",1.67 µM
same,IC50,SHEE cells,4.82 ± 0.23 µM
same,proportion of apoptotic cells,KYSE450TR cells [2]; 5 μM,32.12%
same,proportion of apoptotic cells,KYSE450TR cells [2]; 10 μM,83.69%
same,"EGFR (Tyr1068) protein levels, 3l group compared with icotinib group",[3],no obvious difference
same,ERK1/2 protein levels,[3]; vs control,"lower than the control at 0.5, 1, 2, 3, and 6 h"
same,P-EGFR (Tyr1068) protein levels,[3]; vs control,lower than the control at 1 h
same,P-EGFR (Tyr1086) protein levels,[3]; vs control,"lower than the control at 0.5, 1, 2, 3, and 6 h"
same,P-ERK1/2 (Thr202/Tyr204) protein levels,[3]; vs control,"lower than the control at 0.5, 1, 2, 3, and 6 h"
same,blank-corrected absorbance 490 nm relative to control (fraction),KYSE70TR cells; concentration 3,0.722
same,inhibition (1 minus fraction of control),KYSE70TR cells; concentration 3,0.278
same,blank-corrected absorbance 490 nm relative to control (fraction),KYSE70TR cells; concentration 6,0.41
same,inhibition (1 minus fraction of control),KYSE70TR cells; concentration 6,0.59
same,blank-corrected absorbance 490 nm relative to control (fraction),KYSE70TR cells; concentration 12,0.2379
same,inhibition (1 minus fraction of control),KYSE70TR cells; concentration 12,0.7621
same,IC50,"KYSE70TR cells; Homo sapiens, MTT, 48 h, taxol-resistant KYSE70TR, value in parentheses, read-out: IC50 48 h KYSE70TR (data in parentheses) (converted)",5.13 µM
same,cell cycle phase in which cells were arrested,KYSE450TR cells [4],G2/M phase
same,Rmax(RU),[5],25.21 RU
same,Kd,[5]; 25°C,8.23 µM and 8.24 µM
same,cell cycle phase in which cells were arrested,KYSE450 cells [6],G2/M phase
same,P-EGFR (Tyr1068) protein levels,[7],lower than the control at 1 and 2 h
same,P-ERK1/2 (Thr202/Tyr204) protein levels,[7],lower than the control at 6 h
